Data taken from patent publication US5861424A, “Composition and method for treating cancer” (priority 1995, dated 1999).
Read-outs that look alike come from different tables or passages of the source.

How the values were obtained:
[1] = tested on: human colon carcinoma cell line CX-1; assay: Colony formation assay, human colon carcinoma CX-1; type: cell-based; settings: for IC50: Homo sapiens, Colon carcinoma cell, 24 h treatment, colony count after 7 to 10 days; for Selectivity (ratio of IC50 for CV-1 and IC50 for CX-1): CV-1/CX-1
Procedure: Human colon carcinoma cell line CX-1 or normal monkey kidney epithelial cell line CV-1 was chosen as representatives of cancer cells and normal cells, respectively. […] CX-1 cells (2,000 cells/well) and CV-1 cells (1,000 cells/well) were plated in 24-well plastic culture plates. […] The control received culture media only. Cells were treated with compounds of General Formulas (1) to (6) at 37° C. for 24 hours. After rinsing with fresh culture medium three times, the cells were further incubated at 37° C. for 7 to 10 days. Cell colonies were fixed and stained with 2% crystal violet in 70% ethanol for 10 minutes and rinsed in water. […] The selectivity is defined as the ratio of IC50 for CV-1 and IC50 for CX-1.

[2] = tested on: human pancreatic carcinoma CRL 1420 cell line; assay: Colony formation assay, human pancreatic carcinoma CRL 1420; type: cell-based; settings: Table VII; for Selectivity (CV-1 IC50 / CRL-1420 IC50): CV-1/CRL-1420; for IC50: Homo sapiens, 24 h
Text: (§1) The control received culture media only.
The Selectivity values, CRL 1420 values and CV-1 values for compounds of the General Formulas (1) to (6) used in the present invention are shown in Table VII below.

human melanoma LOX = assay: Survival of nude mice implanted with human melanoma LOX; type: in vivo, human melanoma in male athymic Swiss nu/nu mouse; settings: Mus musculus, ip, 24 h, read-out: T/C (survival)
Procedure: LOX, a human melanoma cell line, grown subcutaneously in nude mice was excised, trypsinized to yield a single cell suspension using a metal grid with a […]. Red blood cells were lysed by incubation with 0.17 molar ammonium chloride at 4° C. for 20 minutes. Five million viable trypan blue negative cells made up in 0.1 ml of Dulbecco modified Eagles' medium (DME) were injected into the peritoneal cavity of a male athymic Swiss nu/nu mouse. The control group and each treatment group consisted of 5 to 10 mice. Treatment was commenced the following day by intraperitoneal injection.
Ten control mice received 0.25 ml of 2% dextrose on those days the treated groups were injected with the compounds of this invention. The compounds of the General Formulas. (1) to (6) used in this invention which were tested are listed in Table VIII below and the results obtained are shown in Table VIII and FIG. 1-6 of the accompanying drawings. T/C is the ratio, expressed as a percentage of the mean survival age of the treated group to the mean survival age of the untreated control group.

[3] = tested on: human colon carcinoma CX-1; assay: Anti-human colon carcinoma CX-1 activity in nude mice, tumor inhibition; type: in vivo, human colon carcinoma in Swiss nu/nu mice; settings: Mus musculus, ip, 24 h
Text: Human colon carcinoma cell line CX-1 has been chosen by the National Cancer Institute as a mode for cancer drug screening (NCI Protocol 3C2H2). It was established in culture from the surgical explant of the primary colon adenocarcinoma of a person with no previous chemotherapy. The cultured CX-1 cells, upon subcutaneous injection, can grow readily in nude mice as a moderately- to well-differentiated human colon carcinoma. CEA is expressed as expected for differentiated colon carcinoma cells. Abundant keratin, consistent with epithelial origin, is present. Increased uptake and prolonged retention of delocalized lipophilic cations are observed.
Swiss nu/nu mice obtained from Taconic Farm were housed in a pathogen-free environment. Tumors subcutaneously passaged in nude mice were excised under sterile conditions and converted to a single cell suspension using a metal grid with a 0.4 mm mesh. Red blood cells were lysed by incubation with 0.17M ammonium chloride at 4° C. for 20 minutes. Cells were scored for viability with trypan blue. Viable CX-1 cells (2.5 million) made up in 0.1 ml of cell culture medium were injected subcutaneously into each nude mouse. The mice were randomly allocated into a control group (five mice) and a treatment group (five mice per group). The drug treatment was commenced the next day. Doses and schedules were developed empirically and were based mainly on information on LD50 and LD10 obtained from preliminary toxicity studies. The control group received an equivalent volume of hydroxylpropyl-β-cyclodextrin-5% glucose solution.
The pharmaceutical compositions tested comprised solutions in 5% glucose subjected to sonication at concentrations of 1 mg/ml. Those compounds which were not completely dissolved by this procedure were dissolved in hydroxypropyl-β-cyclodextrin using the following method. Hydroxypropyl-β-cyclodextrin (45 g) was mixed with 100 ml of sterilized, double distilled water and stirred for four hours. Each of the compounds to be tested (20 mg) was mixed with 10 ml of hydroxypropyl-β-cyclodextrin solution and sonicated for 60 minutes in the dark. This solution was then diluted in 5% glucose to yield a final compound concentration of 0.5 mg/ml, and further sonicated for 60 minutes in the dark to assure that the compound was completely dissolved.
When the growth of tumors in the control group reached the exponential phase and the size of the tumor was palpable (usually 20 to 30 days after tumor implantation), the experiments were terminated. Tumors in each mouse were excised and weighed using an analytical balance. Total tumor weight in each group from five mice was calculated. Per cent tumor inhibition between the treated group and the control group was then calculated for each group.

[4] = tested on: normal monkey kidney epithelial cell line CV-1; assay: Colony formation assay, normal monkey kidney epithelial cells CV-1; settings: Primates, Epithelial cell;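 further: colonies visualized by crystal violet staining, incubation at 37 °C, IC50 relative to untreated wells given culture medium alone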
[5] = tested on: human ovarian carcinoma OVCAR-3; assay: Survival of nude mice implanted with human ovarian carcinoma OVCAR-3; type: in vivo, human ovarian carcinoma in athymic Swiss nu/nu mice
Procedure: A human ovarian carcinoma cell line, OVCAR-3, was used. Ten million cells of this cell line were injected IP into ten athymic Swiss nu/nu mice. Ten mice into which these cancer cells had been injected were selected as a control group and received in equal volume of 5% dextrose as that of the treated group. The compounds of the General Formulas (1) to (6) which were tested and the results obtained are shown in Table IX below and in FIG. 7-9 of the accompanying drawings.

normal nude mice = assay: Toxicity to normal nude mice
[6] = tested on: human bladder carcinoma EJ cell line; assay: Colony formation assay, human bladder carcinoma EJ; type: cell-based; settings: Table IV; for IC50: Homo sapiens, EJ, 24 h, 24 h treatment, read-out: EJ (IC50); for Selectivity (CV-1 IC50 / EJ IC50): CV-1/EJ
Text: as §1

[7] = tested on: human melanoma LOX cell line; assay: Colony formation assay, human melanoma LOX; type: cell-based; settings: Table V; for IC50: Homo sapiens, LOX, 24 h, 24 h treatment, read-out: LOX (IC50); for Selectivity (CV-1 IC50 / LOX IC50): CV-1/LOX
Text: as §1

[8] = tested on: human breast carcinoma MCF-7 cell line; assay: Colony formation assay, human breast carcinoma MCF-7; type: cell-based; settings: Table VI; for IC50: Homo sapiens, MCF7, 24 h, 24 h treatment, read-out: MCF-7 (IC50); for Selectivity (CV-1 IC50 / MCF-7 IC50): CV-1/MCF-7
Text: as §1
The Selectivity values, MCF-7 values and CV-1 values for compounds of the General Formulas (1) to (6) used in the present invention are shown in Table VI below.

[9] = Table III, read-out: CX-1 (IC50)
[10] = read-out: CV-1 (IC50), Table III, 24 h treatment, colony count after 7 to 10 days
[11] = read-out: CV-1 (IC50), Table VII
[12] = i.p. on day 1, 4, 7, 11, 15, 18
[13] = read-out: CV-1 (IC50), Table IV
[14] = read-out: CV-1 (IC50), Table VI

CCn1c(=Cc2sc3c4ccccc4ccc3[n+]2CC)sc(=CC=C2Sc3ccc4ccccc4c3N2C)c1=O [Compound 32]
IC50 [1, 9]: 0.02 µg/mL | Selectivity (ratio of IC50 for CV-1 and IC50 for CX-1) ([1]; Table III): 1000 | CRL-1420 (IC50) ([2]; 24 h treatment): < 0.1 µg/mL | Selectivity (CV-1 IC50 / CRL-1420 IC50) [2]: > 200 | response vs control in vivo at 40 mg/kg (human melanoma LOX; 40 mg/kg, i.p. on day 1, 2, 3, 4, 5, 7, 8, 9, 10): 231% | inhibition in vivo at 20 mg/kg ([3]; i.p. on day 1, 2, 4, 6, 8): 40.5% | IC50 [4, 10]: 20 µg/mL | IC50 [4, 11]: 20 µg/mL

C=CCn1c(=Cc2sc3c4ccccc4ccc3[n+]2CC)sc(=CC=C2C=CN(CC)c3ccccc32)c1=O [Compound 290]
IC50 [1, 9]: 0.025 µg/mL | Selectivity (ratio of IC50 for CV-1 and IC50 for CX-1) ([1]; Table III): 100 | T/C (survival) ([5]; 2 mg/kg, i.p. on day 1, 5, 9, 18, 48): 356% | IC50 [4, 10]: 2.5 µg/mL

CCN1/C(=C/C=C/c2sc3c4ccccc4ccc3[n+]2CC)Sc2c1ccc1ccccc21 [C, reference compound]
IC50 [1, 9]: 0.05 µg/mL | toxicity to normal nude mice (normal nude mice): highly toxic to normal nude mice | IC50 [4, 10]: < 0.1 µg/mL

CCN1CCSC1=CC=c1sc(=Cc2sc3c4ccccc4ccc3[n+]2CC)n(CC)c1=O [Compound 116]
response vs control in vivo at 5 mg/kg (human melanoma LOX; 5 mg/kg, i.p. on day 1, 5, 9, 13, 17, 22): 582% | T/C (survival) ([5]; 5 mg/kg, i.p. on day 1, 5, 9, 14, 19, 23, 27, 48): > 378% | inhibition in vivo at 5 mg/kg ([3]; 5 mg/kg, i.p. on day 1, 6, 10, 14, 19, 23): 77%

CCN1C(=CC=c2sc(=Cc3sc4c5ccccc5ccc4[n+]3CC)n(C)c2=O)Sc2ccc3ccccc3c21 [Compound 45]
IC50 [1, 9]: 0.02 µg/mL | Selectivity (ratio of IC50 for CV-1 and IC50 for CX-1) ([1]; Table III): 1000 | IC50 [6]: 0.05 µg/mL | Selectivity (CV-1 IC50 / EJ IC50) [6]: 400 | IC50 [7]: 0.07 µg/mL | Selectivity (CV-1 IC50 / LOX IC50) [7]: 286 | IC50 [8]: 0.06 µg/mL | Selectivity (CV-1 IC50 / MCF-7 IC50) [8]: 333 | IC50 ([2]; 24 h treatment): 0.07 µg/mL | Selectivity (CV-1 IC50 / CRL-1420 IC50) [2]: 286 | response vs control in vivo at 20 mg/kg (human melanoma LOX; i.p. on day 1, 2, 3, 6, 9, 13): 137% | inhibition in vivo at 20 mg/kg [3, 12]: 56.8% | IC50 [4, 10]: 20 µg/mL | IC50 [4, 13]: 20 µg/mL | IC50 ([4]; read-out: CV-1 (IC50), Table V): 20 µg/mL | IC50 [4, 14]: 20 µg/mL | IC50 [4, 11]: 20 µg/mL

CCN1C(=CC=c2sc(=Cc3sc4c5ccccc5ccc4[n+]3C)n(C)c2=O)Sc2ccc3ccccc3c21 [Compound 46]
IC50 [1, 9]: 0.05 µg/mL | Selectivity (ratio of IC50 for CV-1 and IC50 for CX-1) ([1]; Table III): 400 | IC50 [6]: 0.082 µg/mL | Selectivity (CV-1 IC50 / EJ IC50) [6]: 244 | IC50 [7]: 0.064 µg/mL | Selectivity (CV-1 IC50 / LOX IC50) [7]: 312 | IC50 [8]: 0.082 µg/mL | Selectivity (CV-1 IC50 / MCF-7 IC50) [8]: 244 | IC50 ([2]; 24 h treatment): 0.064 µg/mL | Selectivity (CV-1 IC50 / CRL-1420 IC50) [2]: 312 | response vs control in vivo at 20 mg/kg (human melanoma LOX; i.p. on day 1, 3, 6, 9, 13, 16): 222% | inhibition in vivo at 20 mg/kg ([3]; i.p. on day 1, 5, 7, 9): 60.1% | IC50 [4, 10]: 20 µg/mL | IC50 [4, 13]: 20 µg/mL | IC50 ([4]; read-out: CV-1 (IC50), Table V): 20 µg/mL | IC50 [4, 14]: 20 µg/mL | IC50 [4, 11]: 20 µg/mL

CCN1C(=CC=c2sc(=Cc3sc4c([n+]3CC)CCCC4)n(CC)c2=O)Oc2ccccc21 [Compound A, reference compound]
IC50 [1, 9]: 0.04 µg/mL | toxicity to normal nude mice (normal nude mice): less toxic to normal nude mice | IC50 [4, 10]: 2 µg/mL

CCN1/C(=C/C=C/c2sc3ccccc3[n+]2CC)Sc2ccccc21 [B, reference compound]
toxicity to normal nude mice (normal nude mice): highly toxic to normal nude mice | IC50 [4, 10]: 0.6 µg/mL

CCN1C(=CC=c2sc(=Cc3cc[n+](CC)c4ccccc34)n(CC)c2=O)C=Cc2ccccc21 [Compound 247]
IC50 ([1]; read-out: CX-1 (IC50), Table III): 0.1 µg/mL | Selectivity (ratio of IC50 for CV-1 and IC50 for CX-1) ([1]; Table III): 200 | response vs control in vivo at 20 mg/kg (human melanoma LOX; i.p. on day 1, 2, 3, 4, 8, 9): 227% | T/C (survival) ([5]; 20 mg/kg, i.p. on day 1, 5, 9, 14, 23, 48): > 378% | inhibition in vivo at 20 mg/kg ([3]; i.p. on day 1, 5, 11, 15, 20, 26, 34): 75% | IC50 [4, 10]: 20 µg/mL

CC[n+]1c(C=c2sc(=CC=C3Sc4ccc5ccccc5c4N3C)c(=O)n2C)sc2c3ccccc3ccc21 [Compound 47]
IC50 [1, 9]: 0.05 µg/mL | Selectivity (ratio of IC50 for CV-1 and IC50 for CX-1) ([1]; Table III): 400 | IC50 [6]: 0.082 µg/mL | Selectivity (CV-1 IC50 / EJ IC50) [6]: 244 | IC50 [7]: 0.082 µg/mL | Selectivity (CV-1 IC50 / LOX IC50) [7]: 244 | IC50 [8]: 0.1 µg/mL | Selectivity (CV-1 IC50 / MCF-7 IC50) [8]: 200 | IC50 ([2]; 24 h treatment): 0.064 µg/mL | Selectivity (CV-1 IC50 / CRL-1420 IC50) [2]: 312 | response vs control in vivo at 20 mg/kg (human melanoma LOX; i.p. on day 1, 3, 6, 9, 13, 16): 156% | inhibition in vivo at 20 mg/kg [3, 12]: 64.1% | IC50 [4, 10]: 20 µg/mL | IC50 [4, 13]: 20 µg/mL | IC50 ([4]; read-out: CV-1 (IC50), Table V): 20 µg/mL | IC50 [4, 14]: 20 µg/mL | IC50 [4, 11]: 20 µg/mL
